Reference: patent US20210395239A1 (Hoffmann-La Roche Inc., priority 2018, published 2021)
pIC50: −log10 of the molar value.

These molecules were tested against T1, hTLR9 (Homo sapiens, UniProt Q9NR96) (assay: HEK293-Blue-hTLR-9 cells assay (SEAP reporter, ODN2006 stimulation)). Conditions: HEK293-Blue-hTLR9 cells, ODN2006, 20 hrs; read-out: HEK/hTLR9 IC50.
T1 sequence (Q9NR96 26-1032): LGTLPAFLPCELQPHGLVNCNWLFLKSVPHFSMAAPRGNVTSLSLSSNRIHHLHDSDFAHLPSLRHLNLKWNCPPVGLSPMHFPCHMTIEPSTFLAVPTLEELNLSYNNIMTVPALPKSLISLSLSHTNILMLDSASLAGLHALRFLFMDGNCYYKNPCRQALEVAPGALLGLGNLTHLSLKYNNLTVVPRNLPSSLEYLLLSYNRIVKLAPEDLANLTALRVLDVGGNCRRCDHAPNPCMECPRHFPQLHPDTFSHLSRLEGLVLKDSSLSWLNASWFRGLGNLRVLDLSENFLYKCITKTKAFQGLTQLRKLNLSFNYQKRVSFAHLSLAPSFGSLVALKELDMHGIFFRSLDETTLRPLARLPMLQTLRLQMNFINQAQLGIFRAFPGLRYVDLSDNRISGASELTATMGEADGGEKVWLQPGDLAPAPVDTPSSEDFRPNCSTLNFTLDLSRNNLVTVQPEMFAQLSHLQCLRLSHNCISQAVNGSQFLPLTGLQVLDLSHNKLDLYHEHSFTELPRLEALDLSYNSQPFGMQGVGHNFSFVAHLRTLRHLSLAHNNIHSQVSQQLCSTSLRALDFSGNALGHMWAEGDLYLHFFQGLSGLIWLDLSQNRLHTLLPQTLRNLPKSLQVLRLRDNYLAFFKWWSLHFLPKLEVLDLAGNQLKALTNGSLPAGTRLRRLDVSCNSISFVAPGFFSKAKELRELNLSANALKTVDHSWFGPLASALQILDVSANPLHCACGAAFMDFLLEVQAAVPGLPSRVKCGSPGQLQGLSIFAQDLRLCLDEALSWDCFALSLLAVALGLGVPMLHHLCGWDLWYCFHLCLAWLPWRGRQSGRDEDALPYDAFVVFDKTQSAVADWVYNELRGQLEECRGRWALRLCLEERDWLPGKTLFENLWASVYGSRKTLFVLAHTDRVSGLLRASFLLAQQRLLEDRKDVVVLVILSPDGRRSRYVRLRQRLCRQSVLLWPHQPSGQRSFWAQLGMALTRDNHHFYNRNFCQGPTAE
Type: cell-based
Parameters: host or cells: HEK293 (HEK-Blue hTLR9)
How it was run: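 Antagonism read as lowered SEAP reporter absorbance (620–655 nm, QUANTI-Blue, 2 h, 37 °C) in supernatants. Before that, ODN2006-stimulated HEK293-Blue cells stably expressing human TLR9 were exposed to compound dilutions at 1% final DMSO for 20 h at 37 °C.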

Point of comparison: `Cc1cc(N2CC(C)(N)C2)cnc1N1CCN(C[C@H]2CN(c3ccc(C#N)n4ncc(F)c34)C[C@@H](C)O2)CC1` [Example 148, 4-[(2S,6R)-2-[[4-[5-(3-amino-3-methyl-azetidin-1-yl)-3-methyl-2-pyridyl]piperazin-1-yl]methyl]-6-methyl-morpholin-4-yl]-3-fluoro-pyrazolo[1,5-a]pyridine-7-carbonitrile], pIC50 7.12. Against it:
- [2H]c1ccc2c(N3C[C@H](CN4CCN(c5ccc(N6CC(C)(N)C6)nc5C)CC4)O[C@H](C)C3)ccc(C#N)c2n1 [Example 137, 5-[(2S,6R)-2-[[4-[6-(3-amino-3-methyl-azetidin-1-yl)-2-methyl-3-pyridyl]piperazin-1-yl]methyl]-6-methyl-morpholin-4-yl]-2-deuterio-quinoline-8-carbonitrile] — within 0.2 log units, 7.18
- [2H]c1ccc2c(N3C[C@H](CN4CC(c5ccc(N6CC(C)(N)C6)nc5)C4)O[C@H](C)C3)ccc(C#N)c2n1 [Example 138, 5-[(2S,6R)-2-[[3-[6-(3-amino-3-methyl-azetidin-1-yl)-3-pyridyl]azetidin-1-yl]methyl]-6-methyl-morpholin-4-yl]-2-deuterio-quinoline-8-carbonitrile] — 0.28 log units higher, 7.40
- [2H]c1ccc2c(N3C[C@H](CN4CCN(c5ncc(N6CC(C)(N)C6)cc5C)CC4)O[C@H](C)C3)ccc(C#N)c2n1 [Example 139, 5-[(2S,6R)-2-[[4-[5-(3-amino-3-methyl-azetidin-1-yl)-3-methyl-2-pyridyl]piperazin-1-yl]methyl]-6-methyl-morpholin-4-yl]-2-deuterio-quinoline-8-carbonitrile] — within 0.2 log units, 7.11
- [2H]c1ccc2c(N3C[C@H](CN4CC(c5ccc(N6C[C@H](OC)[C@@H](N)C6)cc5)C4)O[C@H](C)C3)ccc(C#N)c2n1 [Example 140, 5-[(2S,6R)-2-[[3-[4-[(3S,4S)-3-amino-4-methoxy-pyrrolidin-1-yl]phenyl]azetidin-1-yl]methyl]-6-methyl-morpholin-4-yl]-2-deuterio-quinoline-8-carbonitrile] — 0.33 log units lower, 6.79
- [2H]c1ccc2c(N3C[C@H](CN4CC(c5ccc(N6CC(C)(N)C6)cc5)C4)O[C@H](C)C3)ccc(C#N)c2n1 [Example 141, 5-[(2S,6R)-2-[[3-[4-(3-amino-3-methyl-azetidin-1-yl)phenyl]azetidin-1-yl]methyl]-6-methyl-morpholin-4-yl]-2-deuterio-quinoline-8-carbonitrile] — 0.24 log units higher, 7.36
- [2H]c1ccc2c(N3C[C@H](CN4CCN(c5ncc(N6C[C@@H](N)[C@H](OC)C6)cc5C)CC4)O[C@H](C)C3)ccc(C#N)c2n1 [Example 142, 5-[(2S,6R)-2-[[4-[5-[(3R,4R)-3-amino-4-methoxy-pyrrolidin-1-yl]-3-methyl-2-pyridyl]piperazin-1-yl]methyl]-6-methyl-morpholin-4-yl]-2-deuterio-quinoline-8-carbonitrile] — within 0.2 log units, 7.19
- [2H]c1ccc2c(N3C[C@H](CN4CCN(c5ccc(N6C[C@@H](N)[C@H](OC)C6)nc5)CC4)O[C@H](C)C3)ccc(C#N)c2n1 [Example 143, 5-[(2S,6R)-2-[[4-[6-[(3R,4R)-3-amino-4-methoxy-pyrrolidin-1-yl]-3-pyridyl]piperazin-1-yl]methyl]-6-methyl-morpholin-4-yl]-2-deuterio-quinoline-8-carbonitrile] — 0.21 log units higher, 7.33
- [2H]c1ccc2c(N3C[C@H](CN4CCN(c5nc(C)cc(N6C[C@@H](N)[C@H](OC)C6)n5)CC4)O[C@H](C)C3)ccc(C#N)c2n1 [Example 144, 5-[(2S,6R)-2-[[4-[4-[(3R,4R)-3-amino-4-methoxy-pyrrolidin-1-yl]-6-methyl-pyrimidin-2-yl]piperazin-1-yl]methyl]-6-methyl-morpholin-4-yl]-2-deuterio-quinoline-8-carbonitrile] — 0.39 log units higher, 7.51
- [2H]c1ccc2c(N3C[C@H](CN4CC(c5cnc(N6CC(C)(N)C6)cc5C)C4)O[C@H](C)C3)ccc(C#N)c2n1 [Example 145, 5-[(2S,6R)-2-[[3-[6-(3-amino-3-methyl-azetidin-1-yl)-4-methyl-3-pyridyl]azetidin-1-yl]methyl]-6-methyl-morpholin-4-yl]-2-deuterio-quinoline-8-carbonitrile] — 0.39 log units higher, 7.51
- [2H]c1ccc2c(N3C[C@H](CN4CC(c5cnc(N6C[C@@H](N)[C@H](OC)C6)cc5C)C4)O[C@H](C)C3)ccc(C#N)c2n1 [Example 146, 5-[(2S,6R)-2-[[3-[6-[(3R,4R)-3-amino-4-methoxy-pyrrolidin-1-yl]-4-methyl-3-pyridyl]azetidin-1-yl]methyl]-6-methyl-morpholin-4-yl]-2-deuterio-quinoline-8-carbonitrile] — 0.39 log units higher, 7.51
- [2H]c1ccc2c(N3C[C@H](CN4CCN(c5ccc(N6CC(C)(N)C6)c(C)n5)CC4)O[C@H](C)C3)ccc(C#N)c2n1 [Example 147, 5-[(2S,6R)-2-[[4-[5-(3-amino-3-methyl-azetidin-1-yl)-6-methyl-2-pyridyl]piperazin-1-yl]methyl]-6-methyl-morpholin-4-yl]-2-deuterio-quinoline-8-carbonitrile] — 0.38 log units lower, 6.74
- [2H]c1ccc2c(N3C[C@H](CN4CC(c5ccc(N6C[C@@H](N)[C@H](OC)C6)nc5)C4)O[C@H](C)C3)ccc(C#N)c2n1 [Example 149, 5-[(2S,6R)-2-[[3-[6-[(3R,4R)-3-amino-4-methoxy-pyrrolidin-1-yl]-3-pyridyl]azetidin-1-yl]methyl]-6-methyl-morpholin-4-yl]-2-deuterio-quinoline-8-carbonitrile] — within 0.2 log units, 7.17
- [2H]c1ccc2c(N3C[C@H](CN4CCN(c5ccc(N6C[C@H](N)[C@@H](F)C6)nc5)CC4)O[C@H](C)C3)ccc(C#N)c2n1 [Example 150, 5-[(2S,6R)-2-[[4-[6-[(3S,4S)-3-amino-4-fluoro-pyrrolidin-1-yl]-3-pyridyl]piperazin-1-yl]methyl]-6-methyl-morpholin-4-yl]-2-deuterio-quinoline-8-carbonitrile] — 0.36 log units lower, 6.76
- [2H]c1ccc2c(N3C[C@H](CN4CCN(c5ccc(N6C[C@@H]7C[C@H]6CN7)nc5)CC4)O[C@H](C)C3)ccc(C#N)c2n1 [Example 151, 2-deuterio-5-[(2S,6R)-2-[[4-[6-[(1S,4S)-2,5-diazabicyclo[2.2.1]heptan-2-yl]-3-pyridyl]piperazin-1-yl]methyl]-6-methyl-morpholin-4-yl]quinoline-8-carbonitrile] — within 0.2 log units, 7.02
- [2H]c1ccc2c(N3C[C@H](CN4CCN(c5ccc(N6CC7(CNCCO7)C6)nc5)CC4)O[C@H](C)C3)ccc(C#N)c2n1 [Example 152, 2-deuterio-5-[(2R,6S)-2-methyl-6-[[4-[6-(5-oxa-2,8-diazaspiro[3.5]nonan-2-yl)-3-pyridyl]piperazin-1-yl]methyl]morpholin-4-yl]quinoline-8-carbonitrile] — within 0.2 log units, 7.00
- [2H]c1ccc2c(N3C[C@H](CN4CCN(c5ccc(N6C[C@H]7C[C@@H]6CN7)nc5)CC4)O[C@H](C)C3)ccc(C#N)c2n1 [Example 153, 2-deuterio-5-[(2S,6R)-2-[[4-[6-[(1R,4R)-2,5-diazabicyclo[2.2.1]heptan-2-yl]-3-pyridyl]piperazin-1-yl]methyl]-6-methyl-morpholin-4-yl]quinoline-8-carbonitrile] — within 0.2 log units, 6.95
- C[C@@H]1CN(c2ccc(C#N)n3ncc(F)c23)C[C@H](CN2CCN(c3ccc(N4CC(C)(N)C4)nc3)CC2)O1 [Example 154, 4-[(2S,6R)-2-[[4-[6-(3-amino-3-methyl-azetidin-1-yl)-3-pyridyl]piperazin-1-yl]methyl]-6-methyl-morpholin-4-yl]-3-fluoro-pyrazolo[1,5-a]pyridine-7-carbonitrile] — within 0.2 log units, 6.95
- [2H]c1ccc2c(N3C[C@H](CN4CCN(c5cccc(N6CC(C)(N)C6)n5)CC4)O[C@H](C)C3)ccc(C#N)c2n1 [Example 155, 5-[(2S,6R)-2-[[4-[6-(3-amino-3-methyl-azetidin-1-yl)-2-pyridyl]piperazin-1-yl]methyl]-6-methyl-morpholin-4-yl]-2-deuterio-quinoline-8-carbonitrile] — within 0.2 log units, 7.15
- [2H]c1ccc2c(N3C[C@H](CN4CC(O)(c5ccc(N6CC(C)(N)C6)cc5)C4)O[C@H](C)C3)ccc(C#N)c2n1 [Example 156, 5-[(2S,6R)-2-[[3-[4-(3-amino-3-methyl-azetidin-1-yl)phenyl]-3-hydroxy-azetidin-1-yl]methyl]-6-methyl-morpholin-4-yl]-2-deuterio-quinoline-8-carbonitrile] — 0.22 log units higher, 7.34
